biological target: T1, PKMYT1 enzyme (Homo sapiens, UniProt Q99640); test: PKMYT1 enzyme inhibition activity, ADP-GLO method; type: biochemical; settings: PKMYT1 enzyme 10 nM, ATP 5 µM, 37°C 90 minutes; read-out: ADP-GLO IC50
T1 construct: purchased Thermo Scientific A33387
T1 sequence (Q99640 1-499): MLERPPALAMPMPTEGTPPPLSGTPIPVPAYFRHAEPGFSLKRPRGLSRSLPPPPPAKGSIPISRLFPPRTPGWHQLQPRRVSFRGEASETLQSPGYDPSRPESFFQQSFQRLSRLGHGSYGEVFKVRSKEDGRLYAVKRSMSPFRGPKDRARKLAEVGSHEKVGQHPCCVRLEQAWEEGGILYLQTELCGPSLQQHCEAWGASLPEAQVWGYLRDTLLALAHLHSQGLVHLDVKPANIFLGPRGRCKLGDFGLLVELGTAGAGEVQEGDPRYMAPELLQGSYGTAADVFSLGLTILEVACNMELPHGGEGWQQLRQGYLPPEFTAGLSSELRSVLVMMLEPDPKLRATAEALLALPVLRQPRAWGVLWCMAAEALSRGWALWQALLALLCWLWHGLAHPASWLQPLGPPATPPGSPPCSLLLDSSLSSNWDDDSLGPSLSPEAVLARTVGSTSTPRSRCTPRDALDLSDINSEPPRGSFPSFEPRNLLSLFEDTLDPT

| Structure (SMILES) | IC50 [nM] |
| --- | --- |
| Cc1ccc(O)c(C)c1-n1c(N)c(C(N)=O)c2cnc(C(F)(F)F)nc21 [Example 4, 6-Amino-7-(3-hydroxy-2,6-dimethylphenyl)-2-(trifluoromethyl)-7H-pyrrolo[2,3-d]pyrimidine-5-carboxamide] | 25.4 |
| C/C=C/c1ncc2c(C(N)=O)c(N)n(-c3c(C)ccc(O)c3C)c2n1 [Example 79] | 4.74 |
| Cc1ccc(O)c(C)c1-n1c(N)c(C(N)=O)c2cnc(Br)nc21 [Example 7, 6-Amino-2-bromo-7-(3-hydroxy-2,6-dimethylphenyl)-7H-pyrrolo[2,3-d]pyrimidine-5-carboxamide] | 9.41 |
| Cc1cc(F)c(O)c(C)c1-n1c(N)c(C(N)=O)c2cc(C(F)(F)F)cnc21 (racemic) [Example 154] | 13.9 |
| COc1c(O)ccc(C)c1-n1c(N)c(C(N)=O)c2cc(C)c(C)nc21 [Example 94] | 408 |
| Cc1cc(F)c(O)c(C)c1-n1c(N)c(C(N)=O)c2cc3c(nc21)CCCC3 (atropisomer, axis not shown) [Example 177.2] | 8.15 |
| CCc1cc2c(C(N)=O)c(N)n(-c3c(C)cc(F)c(O)c3C)c2nc1C (atropisomer, axis not shown) [Example 143] | 18.2 |
| CCc1nc(C)nc2c1c(C(N)=O)c(N)n2-c1c(C)cc(F)c(O)c1C [Example 67] | 54.6 |
| Cc1ccc(O)c(C)c1-n1c(N)c(C(N)=O)c2cnc(Cl)nc21 [Example 5, 6-Amino-2-chloro-7-(3-hydroxy-2,6-dimethylphenyl)-7H-pyrrolo[2,3-d]pyrimidine-5-carboxamide] | 8.01 |
| Cc1ccc(O)c(C)c1-n1c(N)c(C(N)=O)c2cnc(C3CCC(F)(F)CC3)nc21 [Example 88] | 16 |
| COc1cc2c(C(N)=O)c(N)n(-c3c(C)cc(F)c(O)c3C)c2nc1C (racemic) [Example 158] | 8.18 |
| Cc1ccc(O)c(C)c1-n1c(N)c(C(N)=O)c2cnc(Nc3ccccc3)nc21 [Example 33, 6-Amino-7-(3-hydroxy-2,6-dimethylphenyl)-2-(phenylamino)-7H-pyrrolo[2,3-d]pyrimidine-5-carboxamide] | 11.3 |
| Cc1cc(F)c(O)c(C)c1-n1c(N)c(C(N)=O)c2cc(CC(F)(F)F)c(C)nc21 [Example 174] | 4.7 |
| Cc1cc2c(C(N)=O)c(N)n(-c3c(C)cc(Cl)c(O)c3C)c2nc1C [Example 43, 2-Amino-1-(4-chloro-3-hydroxy-2,6-dimethylphenyl)-5,6-dimethyl-1H-pyrrolo[2,3-b]pyridine-3-carboxamide] | 26.4 |
| Cc1cc(F)c(O)c(C)c1-n1c(N)c(C(N)=O)c2cc3c(nc21)CCO3 [Example 184] | 88.8 |
| Cc1cc(F)c(O)c(C)c1-n1c(N)c(C(N)=O)c2cc(C(C)(C)O)c(C)nc21 (atropisomer, axis not shown) [Example 172.1] | 4.6 |
| Cc1cc2c(C(N)=O)c(N)n(-c3c(C)c(O)cc(Cl)c3C)c2nc1C [Example 48, 2-Amino-1-(3-chloro-5-hydroxy-2,6-dimethylphenyl)-5,6-dimethyl-1H-pyrrolo[2,3-b]nicotinamide] | 36.8 |
| Cc1cc2c(C(N)=O)c(N)n(-c3c(C)c(O)cc(F)c3C)c2nc1C (atropisomer, axis not shown) [Example 22] | 85.5 |
| Cc1cc2c(C(N)=O)c(N)n(-c3c(C)c(O)c(F)c(F)c3C)c2nc1C [Example 54] | 17.5 |
| Cc1ccc(O)c(C)c1-n1c(N)c(C(N)=O)c2cnc(C#CC3CC3)nc21 [Example 12, 6-Amino-2-(cyclopropylethynyl)-7-(3-hydroxy-2,6-dimethylphenyl)-7H-pyrrolo[2,3-d]pyrimidine-5-carboxamide] | 6.58 |
| COC(C)(C)c1cnc2c(c1)c(C(N)=O)c(N)n2-c1c(C)cc(F)c(O)c1C [Example 146] | 35.2 |
| Cc1cc(F)c(O)c(C)c1-n1c(N)c(C(N)=O)c2c3c(cnc21)CCC3 (atropisomer, axis not shown) [Example 186.2] | 3.91 |
| Cc1cc(F)c(O)c(C)c1-n1c(N)c(C(N)=O)c2cc(C(F)F)c(C)nc21 [Example 204] | 18.9 |
| Cc1cc2c(C(N)=O)c(N)n(-c3c(C)c(O)cc(F)c3C)c2nc1-c1ccnn1C [Example 124] | 10.4 |
| CCCN(CC)c1ncc2c(C(N)=O)c(N)n(-c3c(C)ccc(O)c3C)c2n1 [Example 83] | 41.8 |
| Cc1cc(F)c(O)c(C)c1-n1c(N)c(C(N)=O)c2cc(C(C)(C)O)c(C)nc21 (racemic) [Example 172] | 16.4 |
| Cc1ccc(O)c(C)c1-n1c(N)c(C(N)=O)c2cc(NC(=O)Nc3ccccc3)c(C)nc21 [Example 91] | 41.7 |

| Structure (SMILES) | IC50 [nM] |
| --- | --- |
| Cc1cc(F)c(O)c(C)c1-n1c(N)c(C(N)=O)c2cc(N3CCC3)c(C)nc21 (racemic) [Example 173] | 7.68 |
| Cc1ccc(O)c(C)c1-n1c(N)c(C(N)=O)c2cnc(NC3CCCC3)nc21 [Example 76] | 4.02 |
| Cc1cc(F)c(O)c(C)c1-n1c(N)c(C(N)=O)c2cc(Cl)c(C)nc21 (racemic) [Example 60] | 4.31 |
| Cc1cc2c(C(N)=O)c(N)n(-c3c(C)cc(F)c(O)c3C)c2nc1C [Example 23, 2-Amino-1-(4-fluoro-3-hydroxy-2,6-dimethylphenyl)-5,6-dimethyl-1H-pyrrolo[2,3-b]pyridine-3-carboxamide] | 8.58 |
| Cc1cc2c(C(N)=O)c(N)n(-c3c(C)c(O)cc(F)c3C)c2c(F)c1C [Example 70] | 34 |
| Cc1ccc(O)c(C)c1-n1c(N)c(C(N)=O)c2cnc(C#N)nc21 [Example 14, 6-Amino-2-cyano-7-(3-hydroxy-2,6-dimethylphenyl)-7H-pyrrolo[2,3-d]pyrimidine-5-carboxamide] | 24.3 |
| Cc1ccc(O)c(C)c1-n1c(N)c(C(N)=O)c2cnc(N3CCCC3)nc21 [Example 35, 6-Amino-7-(3-hydroxy-2,6-dimethylphenyl)-2-(pyrrolidin-1-yl)-7H-pyrrolo[2,3-d]pyrimidine-5-carboxamide] | 37.8 |
| Cc1cc2c(C(N)=O)c(N)n(-c3c(C)c(F)cc(O)c3F)c2nc1C [Example 107] | 14.1 |
| Cc1cc(F)c(O)c(C)c1-n1c(N)c(C(N)=O)c2cc(C3CC3)cnc21 (atropisomer, axis not shown) [Example 144] | 5.74 |
| [2H]C([2H])([2H])c1c(O)c(F)cc(C)c1-n1c(N)c(C(N)=O)c2cc(C(F)(F)F)c(C)nc21 (atropisomer, axis not shown) [Example 195.1] | 2.8 |
| Cc1ccc(O)c(C)c1-n1c(N)c(C(N)=O)c2cnc(NC3CC3)nc21 [Example 84] | 5.28 |
| Cc1cc(F)c(O)c(C)c1-n1c(N)c(C(N)=O)c2cc(N(C)C)c(C)nc21 (racemic) [Example 169] | 26.2 |
| COc1cc2c(C(N)=O)c(N)n(-c3c(C)cc(F)c(O)c3C)c2nc1C (atropisomer, axis not shown) [Example 158.1] | 7.5 |
| Cc1cc(F)c(O)c(C)c1-n1c(N)c(C(N)=O)c2cc(C3CC3)cnc21 (single isomer, unassigned) [Example 144.1] | 2.08 |
| Cc1c(O)cc(F)c(C)c1-n1c(N)c(C(N)=O)c2cc(N3CCOCC3)cnc21 [Example 117] | 192 |
| Cc1ccc(O)c(C)c1-n1c(N)c(C(N)=O)c2cnc(CC(C)C)nc21 [Example 57, 6-Amino-7-(3-hydroxy-2,6-dimethylphenyl)-2-isobutyl-7H-pyrrolo[2,3-d]pyrimidine-5-carboxamide] | 3.04 |
| Cc1cc(F)c(O)c(C)c1-n1c(N)c(C(N)=O)c2c3cnccc3c(C)cc21 [Example 207] | 4.08 |
| Cc1nc(C)c2c(C(N)=O)c(N)n(-c3c(C)ccc(O)c3C)c2n1 [Example 19, 6-Amino-7-(3-hydroxy-2,6-dimethylphenyl)-2,4-dimethyl-7H-pyrrolo[2,3-d]pyrimidine-5-carboxamide] | 4.5 |
| CCNc1ncc2c(C(N)=O)c(N)n(-c3c(C)ccc(O)c3C)c2n1 [Example 75] | 5.5 |
| Cc1cc2c(C(N)=O)c(N)n(-c3c(C)ccc(O)c3C)c2nc1N [Example 95] | 9.47 |
| Cc1cc(F)c(O)c(C)c1-n1c(N)c(C(N)=O)c2cc(CC(C)C)c(C)nc21 (racemic) [Example 166] | 8.4 |
| Cc1c(O)cc(F)c(C)c1-n1c(N)c(C(N)=O)c2c3cnccc3c(C)cc21 [Example 208] | 4.52 |
| Cc1cc(F)c(O)c(C)c1-n1c(N)c(C(N)=O)c2cc3c(nc21)CCC3 [Example 183] | 33.8 |
| Cc1ccc(O)c(C)c1-n1c(N)c(C(N)=O)c2cnc(-c3ccc(F)cc3)nc21 [Example 64] | 15.7 |
| Cc1cc2c(C(N)=O)c(N)n(-c3c(C)cc(F)c(O)c3C)c2nc1F [Example 73] | 13.4 |
| CNc1ncc2c(C(N)=O)c(N)n(-c3c(C)ccc(O)c3C)c2n1 [Example 85] | 6.7 |
| Cc1ccc(O)c(C)c1-n1c(N)c(C(N)=O)c2cnc(C)c(F)c21 [Example 29, 2-Amino-7-fluoro-1-(3-hydroxy-2,6-dimethylphenyl)-6-methyl-1H-pyrrolo[3,2-c]nicotinamide] | 12.4 |

same assay, conditions: read-out: ADP-GLO IC50; PKMYT1 enzyme 10 nM, ATP 5 µM, 37°C 90 minutes

| IC50 [nM] | Structure (SMILES) |
| --- | --- |
| 8.23 | Cc1ccc(O)c(C)c1-n1c(N)c(C(N)=O)c2cnc(/C=C/C3CC3)nc21 [Example 78] |
| 15.6 | COc1nc(C)nc2c1c(C(N)=O)c(N)n2-c1c(C)ccc(O)c1C [Example 69] |
| 15.1 | Cc1ccc(O)c(C)c1-n1c(N)c(C(N)=O)c2cnc(CC(C)C)nc21 (atropisomer, axis not shown) [Example 57.1] |

Source: EP4624471A1, “PKMYT1 INHIBITOR, PREPARATION METHOD THEREFOR, AND PHARMACEUTICAL COMPOSITION AND USE THEREOF” (Shanghai Qilu Pharmaceutical Research and Development …, priority 2022, dated 2024)
